From paper PMC6154583, “Optimized 4,5-Diarylimidazoles as Potent/Selective Inhibitors of Protein Kinase CK1δ and Their Structural Relation to p38α MAPK” (Molecules : A Journal of Synthetic Chemistry and Natural …, 2017)
Values belong to the compound of their own block, whether it stands above or below them.

What was measured:
HT-29 cells = assay: MTT viability assay; format: cell-based; conditions: Homo sapiens, dilution series
Method: (§1) The human pancreatic cancer cell lines Colo357 [61], Panc-1 [62], and MiaPaCa-2 [63] were grown in Dulbecco’s modified Eagle’s medium (DMEM). Panc89 [64] was grown in DMEM:RPMI-1640 medium in ratio 1:1. The human colon adenocarcinoma cell line HT-29 [65] was grown in McCoy’s 5A medium. All media were supplemented with 10% fetal calf serum (FCS), 100 units·mL^−1 penicillin, 100 µg∙mL^−1 streptomycin and 2 mM glutamine. All cells were grown at 37 °C in a humidified 5% carbon dioxide atmosphere.
In order to determine the cytotoxic effects of investigated inhibitors conventional MTT assay were used. 1 × 10^4 cells∙well^−1 were seeded in 96-well cell culture plates and cultivated for 24 h. Cell lines were exposed to increasing concentrations of the indicated inhibitor compounds, with untreated and DMSO-treated cells serving as control. After an incubation period of 48 h 10 µL of MTT solution (5 mg∙mL^−1 in PBS) were added and cells were incubated for 4 h. […] Finally, dissolved crystals were measured spectrophotometrically at 570 nM. […]
Figure S1. (A) HT-29 cells were treated with compounds of series 1 at 20 µM concentration and cell viability was measured by MTT viability assay. […]
screening at 20 µM concentration. Cell viability was determined by MTT assay and the EC50 value was calculated using GraphPad Prism 6. […]

Colo357 cells = assay: MTT viability assay; format: cell-based, human; conditions: mean ± SD, n = 3
Method: as §1
(§2) In order to determine the cytotoxic effects of investigated inhibitors conventional MTT assay were used. 1 × 10^4 cells∙well^−1 were seeded in 96-well cell culture plates and cultivated for 24 h. Cell lines were exposed to increasing concentrations of the indicated inhibitor compounds, with untreated and DMSO-treated cells serving as control. After an incubation period of 48 h 10 µL of MTT solution (5 mg∙mL^−1 in PBS) were added and cells were incubated for 4 h. MTT-containing medium was carefully removed and 100 µL acidic isopropanol (0.04 N HCl in isopropanol) per well were added. For dissolution of formazan crystals plates were shaken for 30 min on an orbital shaker in the dark. Finally, dissolved crystals were measured spectrophotometrically at […]. All experiments were performed in triplicate with four technical replicates per assay. Results were normalized considering the mean optical density value of control wells as 100%. GraphPad Prism 6 (La Jolla, CA, USA) software was used to calculate EC50 values.

MiaPaCa-2 cells = assay: MTT viability assay; format: cell-based, human; conditions: mean ± SD, n = 3
Method: as §1, §2

Panc-1 cells = assay: MTT viability assay; format: cell-based, human; conditions: mean ± SD, n = 3
Method: as §1, §2

Panc89 cells = assay: MTT viability assay; format: cell-based, human; conditions: 48 h incubation, mean ± SD, n = 3
Method: as §1, §2

CK1δ/ε = conditions: read-out: IC50 CK1δ/ε; cited from earlier work
CK1α = conditions: read-out: IC50 CK1α; cited from earlier work
[1] = Chemical stability in DMSO solution by HPLC analysis; format: physicochemical; conditions: within a short period of time after preparing a solution in DMSO
Text: The binding modes described above are based on (E)-configured cinnamic moieties of 1 and 2, respectively. […] Accordingly, computational analysis assume these (Z)-stereoisomers to be less bioactive. Furthermore, the acrylamide Michael acceptor moiety of the cinnamic acid side chain was considered responsible for the observed chemical instability of 1 and 2 in solution. […] Consequently, our primary goal towards an optimized inhibitor was to gain chemical stability. Thus, having identified the cinnamic side chain to be responsible for the chemical instability issue we aimed towards stable side chains attached at the validated 2-aminopyridine core moiety. By these modifications we set out to explore the respective hydrophobic region II formerly occupied by the cinnamic acid moiety. At the same time, both potency and selectivity for CK1δ were taken into account. Therefore, in our systematic approach four structurally divergent series of inhibitors with variable side chains (Scheme 1) have been designed based on the following considerations.
They were stable in DMSO solution at room temperature without detectable degradation over a period of 72 h by HPLC analysis.

CK1ε = test system: CK1ε; design: method as in PMID 19591487; conditions: cited from earlier work
CK1δ = CK1δ (Homo sapiens, UniProt P48730); design: method as in PMID 19591487; conditions: CK1δ versus CK1ε; cited from earlier work
[2] = Homo sapiens, COLO357, 48 h incubation
[3] = Homo sapiens, MIA PaCa-2, 48 h incubation
[4] = Homo sapiens, PANC-1, 48 h incubation

Sequence of CK1δ (P48730 whole entry): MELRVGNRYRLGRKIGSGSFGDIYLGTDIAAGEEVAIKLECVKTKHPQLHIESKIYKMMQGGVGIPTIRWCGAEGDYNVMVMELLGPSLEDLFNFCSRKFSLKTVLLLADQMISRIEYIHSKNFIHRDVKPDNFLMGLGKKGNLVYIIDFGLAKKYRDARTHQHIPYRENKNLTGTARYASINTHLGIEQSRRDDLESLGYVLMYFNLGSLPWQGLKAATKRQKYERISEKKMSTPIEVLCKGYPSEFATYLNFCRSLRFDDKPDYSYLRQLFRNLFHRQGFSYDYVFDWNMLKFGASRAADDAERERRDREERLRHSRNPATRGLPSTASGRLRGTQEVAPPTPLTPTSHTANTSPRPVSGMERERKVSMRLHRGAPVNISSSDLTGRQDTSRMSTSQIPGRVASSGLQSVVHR

EC50 (MiaPaCa-2 cells; [3]): 2.4 ± 0.7 µM
EC50 (Panc-1 cells; [4]): 5.1 ± 1.6 µM
SMILES: COc1ccc(-c2cc(C(=O)Nc3cc(-c4nc(SC)[nH]c4-c4ccc(F)cc4)ccn3)n(C)c2)c(OC)c1 [16a, 4-(2,4-Dimethoxyphenyl)-N-(4-(5-(4-fluorphenyl)-2-(methylthio)-1H-imidazol-4-yl)-pyridin-2-yl)-1-methyl-1H-pyrrole-2-carboxamide]

EC50 (Colo357 cells; [2]): 16.7 ± 5.6 µM
EC50 (MiaPaCa-2 cells; [3]): 7.7 ± 2.5 µM
EC50 (Panc-1 cells; [4]): 10.2 ± 3.2 µM
SMILES: COc1ccc(-c2cc(C(=O)Nc3cc(-c4nc([S+](C)[O-])[nH]c4-c4ccc(F)cc4)ccn3)n(C)c2)c(OC)c1 (stereo not drawn) [16c, 4-(2,4-Dimethoxyphenyl)-N-(4-(5-(4-fluorophenyl)-2-(methylsulfinyl)-1H-imidazol-4-yl)-pyridin-2-yl)-1-methyl-1H-pyrrol-2-carboxamide]

The remaining lines, values behind:

SMILES: CSc1nc(-c2ccnc(NCCc3c[nH]c4ccccc34)c2)c(-c2ccc(F)cc2)[nH]1 [10e, N-(2-(1H-Indol-3-yl)-ethyl)-4-(5-(4-fluorophenyl)-2-(methylthio)-1H-imidazol-4-yl)-pyridin-2-amine]
EC50 (HT-29 cells): 9.3 µM

SMILES: COc1ccc(CCC(=O)Nc2cc(-c3nc(SC)[nH]c3-c3ccc(F)cc3)ccn2)c(OC)c1 [11a, 3-(2,4-Dimethoxyphenyl)-N-(4-(5-(4-fluorophenyl)-2-(methylthio)-1H-imidazol-4-yl)-pyridin-2-yl)propanamide]
EC50 (Colo357 cells; [2]): 4.1 ± 1.7 µM
EC50 (MiaPaCa-2 cells; [3]): 4.9 ± 0.8 µM
EC50 (Panc-1 cells; [4]): 7 ± 0.7 µM
EC50 (Panc89 cells; Homo sapiens): 2.5 ± 1 µM

SMILES: COc1cccc(CCC(=O)Nc2cc(-c3nc(SC)[nH]c3-c3ccc(F)cc3)ccn2)c1OC [11c, 3-(2,3-Dimethoxyphenyl)-N-(4-(5-(4-fluorophenyl)-2-(methylthio)-1H-imidazol-4-yl)-pyridin-2-yl)-propanamide]
EC50 (Colo357 cells; [2]): 1.9 ± 0.6 µM
EC50 (Panc89 cells; Homo sapiens): 6.1 ± 3 µM

SMILES: COc1ccc(CCC(=O)Nc2cc(-c3nc(SC)[nH]c3-c3ccc(F)cc3)ccn2)cc1OC [11d, 3-(3,4-Dimethoxyphenyl)-N-(4-(5-(4-fluorophenyl)-2-(methylthio)-1H-imidazol-4-yl)-pyridin-2-yl)-propanamide]
EC50 (Colo357 cells; [2]): 5.9 ± 2.4 µM
EC50 (Panc89 cells; Homo sapiens): 7.8 ± 0.4 µM

SMILES: COc1cc(CCC(=O)Nc2cc(-c3nc(SC)[nH]c3-c3ccc(F)cc3)ccn2)cc(OC)c1OC [11e, 3-(3,4,5-Trimethoxyphenyl)-N-(4-(5-(4-fluorophenyl)-2-(methylthio)-1H-imidazol-4-yl)-pyridin-2-yl)-propanamide]
EC50 (Colo357 cells; [2]): 4.5 ± 1.3 µM
EC50 (Panc89 cells; Homo sapiens): 8.3 ± 2.2 µM

SMILES: COc1ccc(NC(=O)Nc2cc(-c3nc(SC)[nH]c3-c3ccc(F)cc3)ccn2)c(OC)c1 [12a, 1-(2,4-Dimethoxyphenyl)-3-(4-(5-(4-fluorophenyl)-2-(methylthio)-1H-imidazol-4-yl)-pyridin-2-yl)carbamide]
EC50 (Colo357 cells; [2]): 17.4 ± 0.04 µM
EC50 (MiaPaCa-2 cells; [3]): 15.22 ± 0.04 µM
EC50 (Panc-1 cells; [4]): 16.1 ± 5.6 µM
EC50 (Panc89 cells; Homo sapiens): 19.6 ± 3.8 µM

SMILES: COc1ccc(OC)c(NC(=O)Nc2cc(-c3nc(SC)[nH]c3-c3ccc(F)cc3)ccn2)c1 [12b, 1-(2,5-Dimethoxyphenyl)-3-(4-(5-(4-fluorophenyl)-2-(methylthio)-1H-imidazol-4-yl)-pyridin-2-yl)carbamide]
EC50 (Colo357 cells; 48 h incubation): 15.5 ± 1.6 µM
EC50 (MiaPaCa-2 cells; 48 h incubation): 11.6 ± 1.1 µM
EC50 (Panc-1 cells; 48 h incubation): 15.2 ± 2.6 µM

SMILES: CSc1nc(-c2ccnc(NC(=O)Nc3ccc(C)c(Cl)c3)c2)c(-c2ccc(F)cc2)[nH]1 [12e, 1-(3-Chloro-4-methylphenyl)-3-(4-(5-(4-fluorophenyl)-2-(methylthio)-1H-imidazol-4-yl)-pyridin-2-yl)-carbamide]
EC50 (Colo357 cells; 48 h incubation): 14.9 ± 2.6 µM
EC50 (Panc89 cells): 7.5 ± 3 µM

SMILES: COc1ccc(OC)c(-c2cc(C(=O)Nc3cc(-c4nc(SC)[nH]c4-c4ccc(F)cc4)ccn3)n(C)c2)c1 [16b, 4-(2,5-Dimethoxyphenyl)-N-(4-(5-(4-fluorphenyl)-2-(methylthio)-1H-imidazol-4-yl)-pyridin-2-yl)-1-methyl-1H-pyrrole-2-carboxamide]
EC50 (Colo357 cells; 48 h incubation): 5.7 ± 2.2 µM
EC50 (MiaPaCa-2 cells; 48 h incubation): 2.3 ± 0.2 µM
EC50 (Panc-1 cells; 48 h incubation): 5.4 ± 1.5 µM
EC50 (Panc89 cells): 7.3 ± 1.9 µM

SMILES: COc1cc(OC)c(C=C2C(O)=Nc3ccccc32)c(OC)c1 [IC261]
IC50 (CK1δ/ε): 1 µM
IC50 (CK1α): 10 µM

SMILES: COc1ccc(/C=C/C(=O)Nc2cc(-c3nc(SC)[nH]c3-c3ccc(F)cc3)ccn2)c(OC)c1 [compound 1]
chemical stability in DMSO solution (HPLC analysis) [1]: increasing number of not identifiable degradation products
IC50 (CK1ε): 0.073 µM

SMILES: COc1ccc(C=CC(=O)Nc2cc(-c3nc([S+](C)[O-])[nH]c3-c3ccc(F)cc3)ccn2)c(OC)c1 (stereo not drawn) [compound 2]
chemical stability in DMSO solution (HPLC analysis) [1]: increasing number of not identifiable degradation products
discrimination of isoforms δ and ε (CK1δ): at least 40 fold
IC50 (CK1ε): 0.447 µM
